SMILES strings stand for the structures. Bounds are passed on as bounds.

The test system of the first assay is HCT116 cells. As to the kind of experiment: Therapeutic effect on the colon cancer HCT116 model (intravenous). Conditions: 50 mg/kg intravenously once every other day, 9 times, vs blank control, P<0.01.
Take `Cc1nc(N(C)c2ccc(OCCCC(=O)NO)cc2)c2ccccc2n1` [II-2, N-hydroxy-4-(4-(methyl(2-methyl-4-quinazolinyl)amino)phenoxy)butanamide]: the “survival time of mice” value is recorded as “significantly prolonged the survival time of mice”.

The assay is the same for the next values; noted with them: 50 mg/kg intravenously, SAHA 50 mg/kg intraperitoneally.
For `Cc1nc(N(C)c2ccc(OCCCC(=O)NO)cc2)c2ccccc2n1` [II-2, N-hydroxy-4-(4-(methyl(2-methyl-4-quinazolinyl)amino)phenoxy)butanamide], the “effect prolonging the survival time compared with positive control group” value was “superior to that of the positive control group”.

Another assay has as its target T1, HDAC6 (Homo sapiens, UniProt Q9UBN7).
T1 sequence (Q9UBN7 1-1215): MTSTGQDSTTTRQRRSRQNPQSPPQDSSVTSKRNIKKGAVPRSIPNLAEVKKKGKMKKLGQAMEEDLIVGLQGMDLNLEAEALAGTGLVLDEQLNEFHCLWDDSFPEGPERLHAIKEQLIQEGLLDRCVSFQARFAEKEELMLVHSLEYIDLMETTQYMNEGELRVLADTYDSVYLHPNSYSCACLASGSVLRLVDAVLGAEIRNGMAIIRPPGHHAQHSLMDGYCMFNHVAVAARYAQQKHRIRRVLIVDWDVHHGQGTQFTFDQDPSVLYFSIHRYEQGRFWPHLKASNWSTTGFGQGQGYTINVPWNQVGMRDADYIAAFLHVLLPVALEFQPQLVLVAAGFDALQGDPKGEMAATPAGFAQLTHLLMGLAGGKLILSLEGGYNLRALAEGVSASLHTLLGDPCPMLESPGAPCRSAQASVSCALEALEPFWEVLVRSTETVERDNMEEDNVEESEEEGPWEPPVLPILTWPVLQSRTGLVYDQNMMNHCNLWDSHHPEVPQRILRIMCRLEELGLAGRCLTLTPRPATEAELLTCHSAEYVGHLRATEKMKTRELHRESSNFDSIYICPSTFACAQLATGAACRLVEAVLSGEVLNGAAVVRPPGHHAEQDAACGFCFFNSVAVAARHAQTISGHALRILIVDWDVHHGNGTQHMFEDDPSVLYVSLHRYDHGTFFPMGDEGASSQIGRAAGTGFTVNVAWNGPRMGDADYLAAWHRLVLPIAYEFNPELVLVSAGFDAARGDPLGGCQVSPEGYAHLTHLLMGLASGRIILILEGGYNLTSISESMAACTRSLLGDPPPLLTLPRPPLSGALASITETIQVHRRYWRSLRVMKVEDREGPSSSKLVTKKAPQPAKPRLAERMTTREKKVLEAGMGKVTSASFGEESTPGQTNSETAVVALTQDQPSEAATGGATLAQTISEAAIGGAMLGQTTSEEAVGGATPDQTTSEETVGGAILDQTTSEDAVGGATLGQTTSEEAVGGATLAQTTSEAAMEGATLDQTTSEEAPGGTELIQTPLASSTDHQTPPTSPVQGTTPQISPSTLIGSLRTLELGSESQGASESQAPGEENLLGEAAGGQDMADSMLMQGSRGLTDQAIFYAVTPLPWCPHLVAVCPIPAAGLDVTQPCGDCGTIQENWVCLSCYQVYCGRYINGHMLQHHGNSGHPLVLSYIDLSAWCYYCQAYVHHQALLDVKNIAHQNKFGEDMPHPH
Nature of the assay: HDAC inhibitory activity, fluorescence-coupled acetylated peptide substrate assay. Conditions: Table 2. Format: biochemical.
On to `Cc1nc(N(C)c2ccc(OCCCC(=O)NO)cc2)c2ccccc2n1` [II-2, N-hydroxy-4-(4-(methyl(2-methyl-4-quinazolinyl)amino)phenoxy)butanamide], for which the IC50 lay within 0.1 to 1 µM.
`CN(c1ccc(OCc2ccc(C(=O)NO)cc2)cc1)c1ncnc2ccccc12` [II-16, N-hydroxy-4-((4-(methyl(4-quinazolinyl)amino)phenoxy)methyl)benzamide] displayed an IC50 of under 0.01 µM.

Staying with this assay, now noted: Table 3.
Compound `Cc1nc(N(C)c2ccc(OCCCC(=O)NO)cc2)c2ccccc2n1` [II-2, N-hydroxy-4-(4-(methyl(2-methyl-4-quinazolinyl)amino)phenoxy)butanamide] came in with an IC50 of 0.196 µM.
`CN(c1ccc(OCc2ccc(C(=O)NO)cc2)cc1)c1ncnc2ccccc12` [II-16, N-hydroxy-4-((4-(methyl(4-quinazolinyl)amino)phenoxy)methyl)benzamide] registered an IC50 of 0.01 µM.

The same assay, now with this note: ratio of IC50 HDAC1 to HDAC6.
`Cc1nc(N(C)c2ccc(OCCCC(=O)NO)cc2)c2ccccc2n1` [II-2, N-hydroxy-4-(4-(methyl(2-methyl-4-quinazolinyl)amino)phenoxy)butanamide]: the “Selection Ratio HDAC1/6” value was 0.4.
In the case of `CN(c1ccc(OCc2ccc(C(=O)NO)cc2)cc1)c1ncnc2ccccc12` [II-16, N-hydroxy-4-((4-(methyl(4-quinazolinyl)amino)phenoxy)methyl)benzamide], the “Selection Ratio HDAC1/6” value stood at 38.5.

Still in this assay, the particulars now being: ratio of IC50 HDAC8 to HDAC6.
For `Cc1nc(N(C)c2ccc(OCCCC(=O)NO)cc2)c2ccccc2n1` [II-2, N-hydroxy-4-(4-(methyl(2-methyl-4-quinazolinyl)amino)phenoxy)butanamide], the “Selection Ratio HDAC8/6” value was 7.5.
Same read-out and setting: for `CN(c1ccc(OCc2ccc(C(=O)NO)cc2)cc1)c1ncnc2ccccc12` [II-16, N-hydroxy-4-((4-(methyl(4-quinazolinyl)amino)phenoxy)methyl)benzamide] the value was 167.6.

The next assay has as its system Human cervical cancer cell Hela. Nature of the assay: Cell proliferative activity (MTT / cck-8). Format: cell-based. Conditions: incubated for 96 hours, read-out: Half-Inhibitory Concentration IC50 Human cervical cancer cell Hela. The procedure: (§1) Tumor cell line A375: human melanoma cell; H460: lung adenocarcinoma cell; Hela: human cervical cancer cell; HepG2: human liver cancer cell; and SKOV-3: human ovarian cancer cell, were all purchased from ATCC and cultured to logarithmic phase according to the cultivation protocol recommended by ATCC. The cells in the logarithmic phase were plated onto a 96-well plate at 2000-3000 cells/well; in the case of adherent cells, the cells should be adherent to the wall. […] After that, the cell proliferative activity was determined by MTT assay for the tumor cells representing the solid tumor model and by cck-8 assay for the tumor cells representing the hematologic tumor model.
With `Cc1nc(N(C)c2ccc(OCCCC(=O)NO)cc2)c2ccccc2n1` [II-2, N-hydroxy-4-(4-(methyl(2-methyl-4-quinazolinyl)amino)phenoxy)butanamide], the IC50 is 0.1 to 1 µM.
Take `CN(c1ccc(OCc2ccc(C(=O)NO)cc2)cc1)c1ncnc2ccccc12` [II-16, N-hydroxy-4-((4-(methyl(4-quinazolinyl)amino)phenoxy)methyl)benzamide]: the IC50 was over 1 µM.

The next assay concerns Human lung cancer cell H460. As to the kind of experiment: Cell proliferative activity (MTT / cck-8). Format: cell-based. Conditions: NCI-H460, incubated for 96 hours, read-out: Half-Inhibitory Concentration IC50 Human lung cancer cell H460. As for the experimental part: as §1
Turning to `Cc1nc(N(C)c2ccc(OCCCC(=O)NO)cc2)c2ccccc2n1` [II-2, N-hydroxy-4-(4-(methyl(2-methyl-4-quinazolinyl)amino)phenoxy)butanamide], the IC50 lay in the range of 0.1 to 1 µM.
On to `CN(c1ccc(OCc2ccc(C(=O)NO)cc2)cc1)c1ncnc2ccccc12` [II-16, N-hydroxy-4-((4-(methyl(4-quinazolinyl)amino)phenoxy)methyl)benzamide], for which the IC50 was over 1 µM.

The next assay concerns Human ovarian cancer cell SKOV-3. Nature of the assay: Cell proliferative activity (MTT / cck-8). Format: cell-based. Particulars: SK-OV-3, incubated for 96 hours, read-out: Half-Inhibitory Concentration IC50 Human ovarian cancer cell SKOV-3. As for the experimental part:
as §1
As to `Cc1nc(N(C)c2ccc(OCCCC(=O)NO)cc2)c2ccccc2n1` [II-2, N-hydroxy-4-(4-(methyl(2-methyl-4-quinazolinyl)amino)phenoxy)butanamide], the IC50 is 0.01 to 0.1 µM.
For `CN(c1ccc(OCc2ccc(C(=O)NO)cc2)cc1)c1ncnc2ccccc12` [II-16, N-hydroxy-4-((4-(methyl(4-quinazolinyl)amino)phenoxy)methyl)benzamide], the IC50 is over 1 µM.

The test system of another assay is Human melanoma A375. Nature of the assay: Cell proliferative activity (MTT / cck-8). In kind it is cell-based. Particulars: A-375, incubated for 96 hours, read-out: Half-Inhibitory Concentration IC50 Human melanoma A375. The procedure: as §1
Take `Cc1nc(N(C)c2ccc(OCCCC(=O)NO)cc2)c2ccccc2n1` [II-2, N-hydroxy-4-(4-(methyl(2-methyl-4-quinazolinyl)amino)phenoxy)butanamide]: the IC50 is 0.1 to 1 µM.
The same measure, in the same setting: the figure for `CN(c1ccc(OCc2ccc(C(=O)NO)cc2)cc1)c1ncnc2ccccc12` [II-16, N-hydroxy-4-((4-(methyl(4-quinazolinyl)amino)phenoxy)methyl)benzamide] is over 1 µM.

Another assay deals with Human liver cancer cell HepG2. As to the kind of experiment: Cell proliferative activity (MTT / cck-8). Format: cell-based. Particulars: incubated for 96 hours, read-out: Half-Inhibitory Concentration IC50 Human liver cancer cell HepG2. The procedure: as §1
Regarding `Cc1nc(N(C)c2ccc(OCCCC(=O)NO)cc2)c2ccccc2n1` [II-2, N-hydroxy-4-(4-(methyl(2-methyl-4-quinazolinyl)amino)phenoxy)butanamide], the IC50 is 0.01 to 0.1 µM.
On to `CN(c1ccc(OCc2ccc(C(=O)NO)cc2)cc1)c1ncnc2ccccc12` [II-16, N-hydroxy-4-((4-(methyl(4-quinazolinyl)amino)phenoxy)methyl)benzamide], for which the IC50 was over 1 µM.

The target of a further assay is T2, HDAC1 (Homo sapiens, UniProt Q13547).
T2 construct: purchased BPS Bioscience
T2 sequence (Q13547 whole entry): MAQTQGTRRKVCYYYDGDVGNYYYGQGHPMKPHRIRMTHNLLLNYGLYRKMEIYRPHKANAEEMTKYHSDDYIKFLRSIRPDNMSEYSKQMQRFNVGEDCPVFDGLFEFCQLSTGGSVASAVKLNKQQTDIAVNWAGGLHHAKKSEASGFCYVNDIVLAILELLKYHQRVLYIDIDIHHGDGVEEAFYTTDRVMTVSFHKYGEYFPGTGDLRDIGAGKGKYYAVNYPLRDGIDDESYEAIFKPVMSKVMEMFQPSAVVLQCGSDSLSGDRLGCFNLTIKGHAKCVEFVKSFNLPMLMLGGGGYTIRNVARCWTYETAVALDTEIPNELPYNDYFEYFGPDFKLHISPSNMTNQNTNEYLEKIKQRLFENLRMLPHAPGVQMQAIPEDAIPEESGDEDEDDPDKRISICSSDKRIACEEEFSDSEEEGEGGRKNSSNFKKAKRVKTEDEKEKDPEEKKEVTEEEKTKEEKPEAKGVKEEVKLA
As to the kind of experiment: HDAC inhibitory activity, fluorescence-coupled acetylated peptide substrate assay (Lys-Ac-AMC). Format: biochemical. Particulars: Table 2.
Take `Cc1nc(N(C)c2ccc(OCCCC(=O)NO)cc2)c2ccccc2n1` [II-2, N-hydroxy-4-(4-(methyl(2-methyl-4-quinazolinyl)amino)phenoxy)butanamide]: the IC50 lay in the range of 0.01 to 0.1 µM.
The compound `CN(c1ccc(OCc2ccc(C(=O)NO)cc2)cc1)c1ncnc2ccccc12` [II-16, N-hydroxy-4-((4-(methyl(4-quinazolinyl)amino)phenoxy)methyl)benzamide] came in with an IC50 of 0.1 to 1 µM.

Still in this assay, the particulars now being: Table 3.
For the compound `Cc1nc(N(C)c2ccc(OCCCC(=O)NO)cc2)c2ccccc2n1` [II-2, N-hydroxy-4-(4-(methyl(2-methyl-4-quinazolinyl)amino)phenoxy)butanamide], the IC50 was 0.084 µM.
For the compound `CN(c1ccc(OCc2ccc(C(=O)NO)cc2)cc1)c1ncnc2ccccc12` [II-16, N-hydroxy-4-((4-(methyl(4-quinazolinyl)amino)phenoxy)methyl)benzamide], the IC50 is 0.385 µM.

The target in another assay is T3, HDAC8 (Homo sapiens, UniProt Q9BY41).
T3 sequence (Q9BY41 1-377): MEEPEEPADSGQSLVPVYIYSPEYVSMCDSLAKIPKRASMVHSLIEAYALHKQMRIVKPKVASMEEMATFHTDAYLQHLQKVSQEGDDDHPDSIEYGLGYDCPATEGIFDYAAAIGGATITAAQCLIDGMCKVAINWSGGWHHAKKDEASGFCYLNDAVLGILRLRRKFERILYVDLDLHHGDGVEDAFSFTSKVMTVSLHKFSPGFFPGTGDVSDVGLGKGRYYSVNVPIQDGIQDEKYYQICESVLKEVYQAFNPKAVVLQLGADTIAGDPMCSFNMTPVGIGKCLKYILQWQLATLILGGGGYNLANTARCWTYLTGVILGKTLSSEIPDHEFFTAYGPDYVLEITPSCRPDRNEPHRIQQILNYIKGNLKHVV
Nature of the assay: HDAC inhibitory activity, fluorescence-coupled acetylated peptide substrate assay. Particulars: IC50 HDAC8, Table 2.
Method: The HDAC inhibitory activity was determined by fluorescence-coupled acetylated peptide substrate assay (Lys-Ac-AMC). HDAC1 protein was purchased from BPS Bioscience, and the reaction buffer system was a modified tris(hydroxymethyl)aminomethane buffer (pH 7.0). The small molecule compounds of the present invention were prepared by being dissolved in 100% DMSO. HDAC was prepared in a buffer at a certain concentration as an enzyme solution; trypsin and fluorescent group 4-amino-7-coumarin coupled-acetylated peptide (Ac-peptide) substrate were prepared in a buffer at a certain concentration as a substrate solution. The compounds were added into the reaction wells in a 384-well plate at a designed concentration of 10 μM, 1 μM, 0.5 μM, 0.1 μM, 0.05 μM, 0.01 μM, 0.005 μM, 0.001 μM, and 0.00005 μM, respectively, and then 15 μl of the HDAC solution was added into the reaction wells (15 μl of blank buffer to the control well). […] The results were analyzed by GraphPad Prism software and IC50 values were calculated according to the formula: Y=Background Data+(Top Data−Background Data)/(1+10^((Log IC50−X) a curve slope)), where Y: the inhibition rate (%) and X: the concentration of the compound.
`Cc1nc(N(C)c2ccc(OCCCC(=O)NO)cc2)c2ccccc2n1` [II-2, N-hydroxy-4-(4-(methyl(2-methyl-4-quinazolinyl)amino)phenoxy)butanamide] yielded an IC50 of over 1 µM.
Still for that read-out and setting: for `CN(c1ccc(OCc2ccc(C(=O)NO)cc2)cc1)c1ncnc2ccccc12` [II-16, N-hydroxy-4-((4-(methyl(4-quinazolinyl)amino)phenoxy)methyl)benzamide] the value was over 1 µM.

The assay is the same for the next values; noted with them: IC50 HDAC8, Table 3.
Take `CN(c1ccc(OCc2ccc(C(=O)NO)cc2)cc1)c1ncnc2ccccc12` [II-16, N-hydroxy-4-((4-(methyl(4-quinazolinyl)amino)phenoxy)methyl)benzamide]: the IC50 is 1.68 µM.

Still in this assay, the particulars now being: read-out: IC50 HDAC8; Table 3.
For the compound `Cc1nc(N(C)c2ccc(OCCCC(=O)NO)cc2)c2ccccc2n1` [II-2, N-hydroxy-4-(4-(methyl(2-methyl-4-quinazolinyl)amino)phenoxy)butanamide], the IC50 stood at 1.47 µM.

The values are drawn from patent US10532053B2, “Histone deacetylase inhibitor, and preparation method and use thereof” (GUANGDONG ZHONGSHENG PHARMACEUTICAL CO., LTD, priority 2015, dated 2020).
